Measured values: US9113629B2, “4-amino-6-(4-substituted-phenyl)-picolinates and 6-amino-2-(4-substituted-phenyl)-pyrimidine-4-carboxylates and their use as herbicides” (DOW AGROSCIENCES LLC, priority 2013, dated 2015)

What follows are compounds tested on VIOSS: wild pansy (Viola tricolor), field violet (Viola arvensis) (assay: Post-emergent Test III, herbicidal activity in wheat and barley). Conditions: Viola tricolor, post-emergence, 504 h; 35 g ai/ha; 21 days after application; read-out: Visual Gorowth Reduction (%) 21 days After Application VIOSS.
Type: in vivo
Procedure, shortened: (§1)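 GR20, GR50, GR80 and GR90 come from probit analysis of visual injury scores (0 = none, 100 = complete kill) taken 21 d after treatment. Foliar application was by track sprayer delivering 187 L/ha at five rates, from high down to 1/16×, onto greenhouse plants at the 2–3 leaf stage, with solvent-blank controls.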

Structure (SMILES)	pest or weed control at 35 g/ha [%]
Nc1c(F)c(-c2ccc(I)c(F)c2F)nc(C(=O)O)c1Cl [Compound 141, 4-amino-3-chloro-6-(2,3-difluoro-4-iodophenyl)-5-fluoropicolinic acid]	95 to 100

Same assay, conditions: Viola tricolor, post-emergence, 504 h; 70 g ai/ha; 21 days after application; read-out: Visual Gorowth Reduction (%) 21 days After Application VIOSS

Structure (SMILES)	pest or weed control at 70 g/ha [%]
Nc1c(F)c(-c2ccc(I)c(F)c2F)nc(C(=O)O)c1Cl [Compound 141, 4-amino-3-chloro-6-(2,3-difluoro-4-iodophenyl)-5-fluoropicolinic acid]	95 to 100

Same assay, conditions: probit analysis; dose for 50 percent growth reduction; 21 days after application

Structure (SMILES)	GR50 VIOSS [g ai/ha]
Nc1c(F)c(-c2ccc(I)c(F)c2F)nc(C(=O)O)c1Cl [Compound 141, 4-amino-3-chloro-6-(2,3-difluoro-4-iodophenyl)-5-fluoropicolinic acid]	7

Same assay, conditions: probit analysis; dose for 80 percent growth reduction; 21 days after application

Structure (SMILES)	GR80 VIOSS [g ai/ha]
Nc1c(F)c(-c2ccc(I)c(F)c2F)nc(C(=O)O)c1Cl [Compound 141, 4-amino-3-chloro-6-(2,3-difluoro-4-iodophenyl)-5-fluoropicolinic acid]	11

Each compound was assayed on SASKR: Russian thistle (Salsola iberica) in the same assay as above. Conditions: Salsola tragus, post-emergence, 504 h; 35 g ai/ha; 21 days after application; read-out: Visual Gorowth Reduction (%) 21 days After Application SASKR.
Type: in vivo
Procedure, shortened: as §1

Structure (SMILES)	pest or weed control at 35 g/ha [%]
Nc1c(F)c(-c2ccc(I)c(F)c2F)nc(C(=O)O)c1Cl [Compound 141, 4-amino-3-chloro-6-(2,3-difluoro-4-iodophenyl)-5-fluoropicolinic acid]	75 to 84

Same assay, conditions: Salsola tragus, post-emergence, 504 h; 70 g ai/ha; 21 days after application; read-out: Visual Gorowth Reduction (%) 21 days After Application SASKR

Structure (SMILES)	pest or weed control at 70 g/ha [%]
Nc1c(F)c(-c2ccc(I)c(F)c2F)nc(C(=O)O)c1Cl [Compound 141, 4-amino-3-chloro-6-(2,3-difluoro-4-iodophenyl)-5-fluoropicolinic acid]	85 to 94

Same assay, conditions: probit analysis; dose for 50 percent growth reduction; 21 days after application

Structure (SMILES)	GR50 SASKR [g ai/ha]
Nc1c(F)c(-c2ccc(I)c(F)c2F)nc(C(=O)O)c1Cl [Compound 141, 4-amino-3-chloro-6-(2,3-difluoro-4-iodophenyl)-5-fluoropicolinic acid]	4

Same assay, conditions: probit analysis; dose for 80 percent growth reduction; 21 days after application

Structure (SMILES)	GR80 SASKR [g ai/ha]
Nc1c(F)c(-c2ccc(I)c(F)c2F)nc(C(=O)O)c1Cl [Compound 141, 4-amino-3-chloro-6-(2,3-difluoro-4-iodophenyl)-5-fluoropicolinic acid]	40

These compounds were tested on HORSS: barley, including spring and winter (Hordeum vulgare) in the same assay as above. Conditions: Hordeum vulgare, post-emergence, 504 h; 35 g ai/ha; 21 days after application; read-out: Visual Gorowth Reduction (%) 21 days After Application HORSS.
Type: in vivo
Procedure, shortened: as §1

Structure (SMILES)	pest or weed control at 35 g/ha [%]
Nc1c(F)c(-c2ccc(I)c(F)c2F)nc(C(=O)O)c1Cl [Compound 141, 4-amino-3-chloro-6-(2,3-difluoro-4-iodophenyl)-5-fluoropicolinic acid]	85 to 94

Same assay, conditions: Hordeum vulgare, post-emergence, 504 h; 70 g ai/ha; 21 days after application; read-out: Visual Gorowth Reduction (%) 21 days After Application HORSS

Structure (SMILES)	pest or weed control at 70 g/ha [%]
Nc1c(F)c(-c2ccc(I)c(F)c2F)nc(C(=O)O)c1Cl [Compound 141, 4-amino-3-chloro-6-(2,3-difluoro-4-iodophenyl)-5-fluoropicolinic acid]	95 to 100

Same assay, conditions: probit analysis; dose for 20 percent growth reduction (crop); 21 days after application

Structure (SMILES)	GR20 HORSS [g ai/ha]
Nc1c(F)c(-c2ccc(I)c(F)c2F)nc(C(=O)O)c1Cl [Compound 141, 4-amino-3-chloro-6-(2,3-difluoro-4-iodophenyl)-5-fluoropicolinic acid]	1

What follows are compounds tested on MATSS: scented mayweed (Matricaria chamomilla), pineappleweed (Matricaria matricarioides) in the same assay as above. Conditions: Matricaria chamomilla, post-emergence, 504 h; 35 g ai/ha; 21 days after application; read-out: Visual Gorowth Reduction (%) 21 days After Application MATSS.
Type: in vivo
Procedure, shortened: as §1

Structure (SMILES)	pest or weed control at 35 g/ha [%]
Nc1c(F)c(-c2ccc(I)c(F)c2F)nc(C(=O)O)c1Cl [Compound 141, 4-amino-3-chloro-6-(2,3-difluoro-4-iodophenyl)-5-fluoropicolinic acid]	75 to 84

Same assay, conditions: Matricaria chamomilla, post-emergence, 504 h; 70 g ai/ha; 21 days after application; read-out: Visual Gorowth Reduction (%) 21 days After Application MATSS

Structure (SMILES)	pest or weed control at 70 g/ha [%]
Nc1c(F)c(-c2ccc(I)c(F)c2F)nc(C(=O)O)c1Cl [Compound 141, 4-amino-3-chloro-6-(2,3-difluoro-4-iodophenyl)-5-fluoropicolinic acid]	95 to 100

Same assay, conditions: probit analysis; dose for 50 percent growth reduction; 21 days after application

Structure (SMILES)	GR50 MATSS [g ai/ha]
Nc1c(F)c(-c2ccc(I)c(F)c2F)nc(C(=O)O)c1Cl [Compound 141, 4-amino-3-chloro-6-(2,3-difluoro-4-iodophenyl)-5-fluoropicolinic acid]	15

Same assay, conditions: probit analysis; dose for 80 percent growth reduction; 21 days after application

Structure (SMILES)	GR80 MATSS [g ai/ha]
Nc1c(F)c(-c2ccc(I)c(F)c2F)nc(C(=O)O)c1Cl [Compound 141, 4-amino-3-chloro-6-(2,3-difluoro-4-iodophenyl)-5-fluoropicolinic acid]	33

The compounds below were run on VERPE: bird's-eye speedwell (veronica persica) in the same assay as above. Conditions: Veronica persica, post-emergence, 504 h; 35 g ai/ha; 21 days after application; read-out: Visual Gorowth Reduction (%) 21 days After Application VERPE.
Type: in vivo
Procedure, shortened: as §1

Structure (SMILES)	pest or weed control at 35 g/ha [%]
Nc1c(F)c(-c2ccc(I)c(F)c2F)nc(C(=O)O)c1Cl [Compound 141, 4-amino-3-chloro-6-(2,3-difluoro-4-iodophenyl)-5-fluoropicolinic acid]	75 to 84

Same assay, conditions: Veronica persica, post-emergence, 504 h; 70 g ai/ha; 21 days after application; read-out: Visual Gorowth Reduction (%) 21 days After Application VERPE

Structure (SMILES)	pest or weed control at 70 g/ha [%]
Nc1c(F)c(-c2ccc(I)c(F)c2F)nc(C(=O)O)c1Cl [Compound 141, 4-amino-3-chloro-6-(2,3-difluoro-4-iodophenyl)-5-fluoropicolinic acid]	85 to 94

Same assay, conditions: probit analysis; dose for 50 percent growth reduction; 21 days after application

Structure (SMILES)	GR50 VERPE [g ai/ha]
Nc1c(F)c(-c2ccc(I)c(F)c2F)nc(C(=O)O)c1Cl [Compound 141, 4-amino-3-chloro-6-(2,3-difluoro-4-iodophenyl)-5-fluoropicolinic acid]	14

Same assay, conditions: probit analysis; dose for 80 percent growth reduction; 21 days after application

Structure (SMILES)	GR80 VERPE [g ai/ha]
Nc1c(F)c(-c2ccc(I)c(F)c2F)nc(C(=O)O)c1Cl [Compound 141, 4-amino-3-chloro-6-(2,3-difluoro-4-iodophenyl)-5-fluoropicolinic acid]	43

The compounds below were run on TRZSS: wheat, including spring and winter (Triticum aestivum) in the same assay as above. Conditions: Triticum aestivum, post-emergence, 504 h; 35 g ai/ha; 21 days after application; read-out: Visual Gorowth Reduction (%) 21 days After Application TRZSS.
Type: in vivo
Procedure, shortened: as §1

Structure (SMILES)	pest or weed control at 35 g/ha [%]
Nc1c(F)c(-c2ccc(I)c(F)c2F)nc(C(=O)O)c1Cl [Compound 141, 4-amino-3-chloro-6-(2,3-difluoro-4-iodophenyl)-5-fluoropicolinic acid]	75 to 84

Same assay, conditions: Triticum aestivum, post-emergence, 504 h; 70 g ai/ha; 21 days after application; read-out: Visual Gorowth Reduction (%) 21 days After Application TRZSS

Structure (SMILES)	pest or weed control at 70 g/ha [%]
Nc1c(F)c(-c2ccc(I)c(F)c2F)nc(C(=O)O)c1Cl [Compound 141, 4-amino-3-chloro-6-(2,3-difluoro-4-iodophenyl)-5-fluoropicolinic acid]	85 to 94

Same assay, conditions: probit analysis; dose for 20 percent growth reduction (crop); 21 days after application

Structure (SMILES)	GR20 TRZSS [g ai/ha]
Nc1c(F)c(-c2ccc(I)c(F)c2F)nc(C(=O)O)c1Cl [Compound 141, 4-amino-3-chloro-6-(2,3-difluoro-4-iodophenyl)-5-fluoropicolinic acid]	1

These compounds were tested on KCHSC: kochia (Kochia scoparia) in the same assay as above. Conditions: Bassia scoparia, post-emergence, 504 h; 35 g ai/ha; 21 days after application; read-out: Visual Gorowth Reduction (%) 21 days After Application KCHSC.
Type: in vivo
Procedure, shortened: as §1

Structure (SMILES)	pest or weed control at 35 g/ha [%]
Nc1c(F)c(-c2ccc(I)c(F)c2F)nc(C(=O)O)c1Cl [Compound 141, 4-amino-3-chloro-6-(2,3-difluoro-4-iodophenyl)-5-fluoropicolinic acid]	75 to 84

Same assay, conditions: Bassia scoparia, post-emergence, 504 h; 70 g ai/ha; 21 days after application; read-out: Visual Gorowth Reduction (%) 21 days After Application KCHSC

Structure (SMILES)	pest or weed control at 70 g/ha [%]
Nc1c(F)c(-c2ccc(I)c(F)c2F)nc(C(=O)O)c1Cl [Compound 141, 4-amino-3-chloro-6-(2,3-difluoro-4-iodophenyl)-5-fluoropicolinic acid]	85 to 94

Same assay, conditions: probit analysis; dose for 50 percent growth reduction; 21 days after application

Structure (SMILES)	GR50 KCHSC [g ai/ha]
Nc1c(F)c(-c2ccc(I)c(F)c2F)nc(C(=O)O)c1Cl [Compound 141, 4-amino-3-chloro-6-(2,3-difluoro-4-iodophenyl)-5-fluoropicolinic acid]	7

Same assay, conditions: probit analysis; dose for 80 percent growth reduction; 21 days after application

Structure (SMILES)	GR80 KCHSC [g ai/ha]
Nc1c(F)c(-c2ccc(I)c(F)c2F)nc(C(=O)O)c1Cl [Compound 141, 4-amino-3-chloro-6-(2,3-difluoro-4-iodophenyl)-5-fluoropicolinic acid]	28
